{
  "source": "PubChem BioAssay AID1996",
  "data": [
    {"settings": "buffer; pH 7.4; 200.0 µM", "units": {"solubility kinetic": "µg/mL"}, "values": [
      {"compound": "COC(=O)/C=C1/SC(=Nc2ccc(Cl)c(Cl)c2)NC1=O", "solubility kinetic": 1},
      {"compound": "COC(=O)C1=C(C)N(C)C(=S)NC1c1cc(OC)ccc1OC", "note": "(stereo not given)", "solubility kinetic": 36.5},
      {"compound": "O=C1CSC(c2cccnc2)N1CC1CC1", "note": "(stereo not given)", "solubility kinetic": "> 35.1"},
      {"compound": "O=C1OCCN1S(=O)(=O)Nc1ccccc1", "solubility kinetic": "> 36.3"},
      {"compound": "CC(=O)Nc1ccc(N2C(=O)CSC2c2ccccc2[N+](=O)[O-])cc1", "note": "(stereo not given)", "solubility kinetic": 41.1},
      {"compound": "O=C(NCCN1CCOCC1)c1cc(Cl)ccc1Cl", "solubility kinetic": 41},
      {"compound": "C[C@H](NC(=O)[C@@H]1Cc2ccccc2CN1)C(=O)NC1CCCC1", "solubility kinetic": "> 47.3"},
      {"compound": "CC1=CCC(C(=O)O)C(C(=O)Nc2cccnc2)C1", "note": "(stereo not given)", "solubility kinetic": 33.3},
      {"compound": "O=C(Nc1ccccc1C(=O)Nc1ccccc1)c1cccs1", "solubility kinetic": 1},
      {"compound": "COC(=O)/C=C1\\N/C(=N/c2nc(C)c3cc(OC)ccc3n2)NC1=O", "solubility kinetic": 1.4},
      {"compound": "Fc1ccc(-c2csc(Nc3ccccn3)n2)cc1", "solubility kinetic": 0.6},
      {"compound": "O=C(Nc1cccc(Cl)c1)N1CCCCCC1", "solubility kinetic": 5.1},
      {"compound": "Cc1cc(S(=O)(=O)NCc2cccnc2)ccc1F", "solubility kinetic": 33.7},
      {"compound": "O=C(Nc1nc2ccsc2c(=O)s1)C1CCC1", "solubility kinetic": 8.1},
      {"compound": "COc1ccccc1NC(=O)COC(=O)C12CC3CC(CC(Br)(C3)C1)C2", "solubility kinetic": 5.5},
      {"compound": "COc1ccc2nc(NC(=O)c3c(C)noc3C)sc2c1", "solubility kinetic": "> 45.5"},
      {"compound": "Cc1ccnc(NC(=O)Cn2c(=O)oc3ccccc32)c1", "solubility kinetic": 10.9},
      {"compound": "COCCN(Cc1ccccc1)C(=O)C1CCN(C(=O)Nc2ccccc2)CC1", "solubility kinetic": "> 59.3"},
      {"compound": "Cc1ccc(-c2ccc(CO)o2)cc1N", "solubility kinetic": "> 30.5"},
      {"compound": "CN1CCN(c2c(F)cc([N+](=O)[O-])c(N)c2Br)CC1", "solubility kinetic": "> 50"},
      {"compound": "O=C(COC(=O)c1cccc(S(=O)(=O)N2CCOCC2)c1)NCc1ccccc1", "solubility kinetic": "> 62.8"},
      {"compound": "C=CCc1ccc(OC(=O)NC2CCCCC2)c(OC)c1", "solubility kinetic": 4.5},
      {"compound": "Clc1ccc(C[n+]2cc(-c3ccc(Cl)cc3)n3c2CCC3)cc1.[Cl-]", "solubility kinetic": "> 57"},
      {"compound": "COc1ccc(CCNC(=O)CN(C)S(=O)(=O)c2ccc(OC)cc2)cc1", "solubility kinetic": "> 58.9"},
      {"compound": "O=C(CCN1C(=O)c2ccccc2C1=O)CN1CCOCC1", "solubility kinetic": 36.5},
      {"compound": "COc1ccc2nc3oc(C(=O)NCCCOC(C)C)cc3cc2c1", "solubility kinetic": 12},
      {"compound": "CCN1CCCC1CNc1ccc(S(C)(=O)=O)cc1[N+](=O)[O-]", "note": "(stereo not given)", "solubility kinetic": "> 49.1"},
      {"compound": "CC(=O)Nc1ccc(S(=O)(=O)Nc2ccc(Cl)cn2)cc1", "solubility kinetic": 46.3},
      {"compound": "CC(C)CNC1CS(=O)(=O)CC1O.Cl", "note": "(stereo not given)", "solubility kinetic": "> 36.6"},
      {"compound": "CN1CCC(N(C)C(=O)c2ccc(Cl)c(S(=O)(=O)N(C)c3ccc(Cl)cc3)c2)CC1", "solubility kinetic": "> 70.6"},
      {"compound": "S=C(NCc1ccc2c(c1)OCO2)NCc1ccco1", "solubility kinetic": "> 43.6"},
      {"compound": "Cc1ccc(C)c(NC(=O)CN(C)C(=O)c2sccc2C)c1", "solubility kinetic": "> 47.5"},
      {"compound": "O=[N+]([O-])c1ccccc1-c1ccc(C(=S)N2CCCCC2)o1", "solubility kinetic": 11.8},
      {"compound": "C=CCOc1ccc(CNCc2cccnc2)cc1.Cl", "solubility kinetic": "> 43.6"},
      {"compound": "COc1cc(OC)c(C(=O)O/N=C(\\N)c2cccc(C)c2)cc1OC", "solubility kinetic": "> 51.7"},
      {"compound": "Cc1ccc(NC(=O)C2CC2c2ccccc2)cc1", "note": "(stereo not given)", "solubility kinetic": 2.4},
      {"compound": "CC1CCCC(C)N1C(=O)COC(=O)c1ccc(Br)o1", "note": "(stereo not given)", "solubility kinetic": "> 51.6"},
      {"compound": "COC(=O)c1ccc(S(=O)(=O)NCc2ccccn2)n1C", "solubility kinetic": 39.6},
      {"compound": "C/C(=N\\OC(=O)Nc1ccccc1)c1ccc(C)cc1", "solubility kinetic": 15},
      {"compound": "COc1ccc(-c2cc3nc4n(c(=O)c3s2)CCCCC4)cc1", "solubility kinetic": "< 0.3"},
      {"compound": "CCS(=O)c1scc(-c2ccc(Cl)cc2)c1C#N", "note": "(stereo not given)", "solubility kinetic": 20.9},
      {"compound": "N#Cc1cccc(CSc2ncnc(N)n2)c1", "solubility kinetic": "> 36.5"},
      {"compound": "Cc1ccc(N2CC(C(=O)NCCN3CCOCC3)CC2=O)cc1C", "note": "(stereo not given)", "solubility kinetic": "> 51.8"},
      {"compound": "COc1ccc(NC(=O)c2ccco2)cc1NC(=O)c1ccccc1", "solubility kinetic": 4.9},
      {"compound": "CC1Cc2ccccc2N1C(=O)COC(=O)c1ccc(Cl)nc1", "note": "(stereo not given)", "solubility kinetic": 11.1},
      {"compound": "CC12CC3(C)CC(C)(C1)CC(C(N)=O)(C2)C3", "solubility kinetic": 31},
      {"compound": "CC1(C)CC2(CCO1)C(Nc1ccccc1)=NC(=S)N2c1ccccc1", "note": "(stereo not given)", "solubility kinetic": "< 0.3"},
      {"compound": "Cc1ccc2[nH]c(C)c(CCNCc3cccnc3)c2c1.Cl", "solubility kinetic": 47.1},
      {"compound": "CCOc1ccc(NC(=O)COC(=O)c2cc(C)oc2C)cc1", "solubility kinetic": 4.2},
      {"compound": "C=CCN1CCN(C(=O)c2c(-c3ccccc3)noc2C)CC1", "solubility kinetic": "> 46.7"},
      {"compound": "Cc1cc(NC(=O)c2cccs2)no1", "solubility kinetic": "> 31.2"},
      {"compound": "CCCOc1ccc(C2=CSC3=NCCN23)cc1.Cl", "solubility kinetic": 37.4},
      {"compound": "COc1ccc(Cl)cc1C(=O)O/N=C(\\N)c1ccccn1", "solubility kinetic": "> 45.9"},
      {"compound": "CNC(=O)COc1ccc2oc3c(c2c1)CCCC3", "solubility kinetic": 31},
      {"compound": "O=C(c1ccc(Cl)cc1)N1CCc2ccccc21", "solubility kinetic": 7.2},
      {"compound": "O=C(CSc1ccc2c(c1)OCCO2)NCc1ccccc1", "solubility kinetic": 44},
      {"compound": "O=C1NC(=Nc2ccccc2)CS1", "solubility kinetic": "> 28.8"},
      {"compound": "COC(=O)c1ccccc1NC(=O)COC(=O)/C=C/c1cccs1", "solubility kinetic": 1.8},
      {"compound": "CN1CCN(C(=O)c2cc([N+](=O)[O-])cc([N+](=O)[O-])c2)CC1", "solubility kinetic": 31.4},
      {"compound": "Cc1cccc(OCCCN2C(=O)C(=O)c3cc(C)ccc32)c1", "solubility kinetic": 10.7}
    ]}
  ]
}
